Columns and labels:
[1] = molecular target: T1, endogenous canine ABCB1 (Canis lupus familiaris, UniProt C0KKU9); experiment: Transepithelial transport of EAI045 across MDCK-II parental cell layers; format: in vitro ADME; details: for efflux ratio r (relative transport ratio): EAI045 5 μM
T1 construct: the endogenous canine ABCB1, expressed at low levels in the parental cell line; endogenous in cells; host or cells: MDCK-II parental cells (ECACC 00062107)
Method: (§1) Transport of EAI045 (5 μM) across epithelia was tested using cell layers of Madin–Darby Canine Kidney (MDCK-II) cells and derived clones expressing hABCB1, hABCG2, or mAbcg2 cDNA. […] In cells overexpressing hABCB1, there was clear transport of EAI045 in the apical direction (r = 5.5, Figure 1C). […] To evaluate the interaction between hABCG2 and mAbcg2 and EAI045, zosuquidar (5 μM) was added to inhibit any endogenous canine ABCB1. In cells overexpressing hABCG2, the BA transport of EAI045 was somewhat increased relative to the AB transport, resulting in an efflux ratio of 1.4 (Figure 1E).
(§2) Figure 1 In vitro transepithelial transport of EAI045 (5 μM) using MCDK-II parental cells (A,B) or transduced with human ABCB1 (C,D), human ABCG2 (E,F), or murine Abcg2 (G,H) cDNA. At t = 0 EAI045 was added in the donor compartment (either apical or basolateral). At 1, 2, and 4 h EAI045 was quantified in the acceptor compartment and the cumulative total transported amount per well was plotted (n = 3). Zosuquidar (5 μM) was added to inhibit the human and/or the endogenous ABCB1, while Ko143 (5 μM) was added to inhibit the human or murine ABCG2. r, relative transport ratio. […] Points, mean; bars, SD. TEXT PRINTED IN THE PICTURE: (A) no label printed: Parental: r = 1.7 | (B) no label printed: Parental + Zos.: r = 1.1 | (C) no label printed: hABCB1: r = 5.5 | (D) no label printed: hABCB1 + Zos.: r = 1.3 | (E) no label printed: hABCG2 + Zos.: r = 1.4 | (F) no label printed: hABCG2 + Zos. + Ko143: r = 1.1 | (G) no label printed: mAbcg2 + Zos.: r = 1.8 | (H) no label printed: mAbcg2 + Zos. + Ko143: r = 1.4
(§3) Madin–Darby Canine Kidney (MDCK-II) cells (ECACC 00062107) stably transduced with human (h) ABCB1, hABCG2, or mouse (m) Abcg2 cDNA were generated in our institute between 1998 and 2005. […] In short, cells were allowed to grow an intact monolayer in 3 days, which was monitored with transepithelial electrical resistance (TEER) measurements, both before and after the transport phase. […] Proper functionality of these cell lines was monitored by continual testing with a variety of drug substrates.

[2] = molecular target: T2, murine Abcg2 (Mus musculus, UniProt Q7TMS5); experiment: Transepithelial transport of EAI045, MDCK-II cells transduced with murine Abcg2; format: in vitro ADME; details: for efflux ratio r (relative transport ratio): EAI045 5 μM
T2 construct: expressed in transfected cells; host or cells: MDCK-II cells, stably transduced, generated in the authors' institute
T2 sequence (Q7TMS5 1-657): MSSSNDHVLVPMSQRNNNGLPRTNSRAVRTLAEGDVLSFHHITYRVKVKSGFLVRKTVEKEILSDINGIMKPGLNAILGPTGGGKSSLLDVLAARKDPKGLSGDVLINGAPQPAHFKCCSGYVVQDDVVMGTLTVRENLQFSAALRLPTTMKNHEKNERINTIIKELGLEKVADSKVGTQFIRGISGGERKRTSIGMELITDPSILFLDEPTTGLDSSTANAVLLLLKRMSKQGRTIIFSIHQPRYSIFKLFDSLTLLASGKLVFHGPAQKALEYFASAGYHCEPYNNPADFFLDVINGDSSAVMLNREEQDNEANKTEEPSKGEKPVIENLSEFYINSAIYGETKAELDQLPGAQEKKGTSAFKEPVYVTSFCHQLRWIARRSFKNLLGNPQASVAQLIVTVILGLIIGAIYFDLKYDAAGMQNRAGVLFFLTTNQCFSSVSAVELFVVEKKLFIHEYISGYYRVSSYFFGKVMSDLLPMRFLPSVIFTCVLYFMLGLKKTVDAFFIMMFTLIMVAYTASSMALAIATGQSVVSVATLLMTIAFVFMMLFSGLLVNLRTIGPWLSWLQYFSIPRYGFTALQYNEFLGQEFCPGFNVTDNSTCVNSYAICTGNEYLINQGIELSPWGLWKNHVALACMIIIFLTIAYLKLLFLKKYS
Method: as §1, §2, §3

[3] = test system: lung cancer driven by EGFR(L858R/T790M); details: cited from earlier work

T1 sequence (C0KKU9 1-1281): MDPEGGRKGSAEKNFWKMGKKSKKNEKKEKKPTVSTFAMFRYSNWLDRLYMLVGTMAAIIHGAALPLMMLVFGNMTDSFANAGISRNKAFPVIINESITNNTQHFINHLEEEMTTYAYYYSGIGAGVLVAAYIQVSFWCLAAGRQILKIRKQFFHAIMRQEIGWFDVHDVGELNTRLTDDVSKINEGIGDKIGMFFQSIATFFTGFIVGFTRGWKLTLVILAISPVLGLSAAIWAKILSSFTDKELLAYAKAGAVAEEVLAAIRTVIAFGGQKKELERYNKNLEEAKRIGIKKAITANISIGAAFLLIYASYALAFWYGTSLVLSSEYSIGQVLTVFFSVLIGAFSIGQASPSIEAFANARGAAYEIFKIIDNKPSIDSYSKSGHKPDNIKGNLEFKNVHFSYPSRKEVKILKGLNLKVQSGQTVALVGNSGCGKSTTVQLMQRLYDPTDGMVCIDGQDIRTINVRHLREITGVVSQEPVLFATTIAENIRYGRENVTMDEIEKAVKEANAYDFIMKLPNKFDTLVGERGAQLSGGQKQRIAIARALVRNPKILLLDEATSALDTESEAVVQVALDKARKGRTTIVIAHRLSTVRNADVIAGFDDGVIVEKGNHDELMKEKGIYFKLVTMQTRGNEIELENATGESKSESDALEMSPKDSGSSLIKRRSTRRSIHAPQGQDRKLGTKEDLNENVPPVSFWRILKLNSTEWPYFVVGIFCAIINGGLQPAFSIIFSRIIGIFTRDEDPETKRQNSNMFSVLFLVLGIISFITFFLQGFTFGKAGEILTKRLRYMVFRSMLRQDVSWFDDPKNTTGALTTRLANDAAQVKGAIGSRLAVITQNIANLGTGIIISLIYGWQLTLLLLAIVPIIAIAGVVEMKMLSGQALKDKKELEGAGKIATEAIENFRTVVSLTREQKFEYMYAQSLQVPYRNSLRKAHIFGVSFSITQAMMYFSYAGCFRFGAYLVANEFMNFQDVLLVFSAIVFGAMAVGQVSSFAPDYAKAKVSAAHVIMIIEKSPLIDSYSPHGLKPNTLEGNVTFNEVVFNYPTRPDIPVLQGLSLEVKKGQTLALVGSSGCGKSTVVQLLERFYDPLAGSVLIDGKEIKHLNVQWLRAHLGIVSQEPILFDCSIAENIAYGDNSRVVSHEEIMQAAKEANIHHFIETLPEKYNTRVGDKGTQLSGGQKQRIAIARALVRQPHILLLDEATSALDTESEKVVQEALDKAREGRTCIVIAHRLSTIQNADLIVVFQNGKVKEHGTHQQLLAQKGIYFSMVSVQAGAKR

efflux ratio r (relative transport ratio) ([1]; parental + zosuquidar 5 μM): 1.1
efflux ratio r (relative transport ratio) ([1]; parental, no inhibitor): 1.7
transport substrate of endogenous canine ABCB1 ([1]; in vitro): moderate transport substrate
efflux ratio r (relative transport ratio) ([2]; mAbcg2 + zosuquidar 5 μM): 1.8
efflux ratio r (relative transport ratio) ([2]; mAbcg2 + zosuquidar 5 μM + Ko143 5 μM): 1.4
transport by mouse Abcg2 ([2]; in vitro): at best slightly transported
SMILES: O=C(Nc1nccs1)C(c1cc(F)ccc1O)N1Cc2ccccc2C1=O (centres unmarked) [EAI045]
effect in L858R/T790M mutant mice, combination treatment ([3]; EAI045 combined with cetuximab): marked tumor regressions
effect in L858R/T790M mutant mice, agent alone ([3]; single agent): very modest effect

Reference: PMC9505538, “P-Glycoprotein (MDR1/ABCB1) Restricts Brain Accumulation of the Novel EGFR Inhibitor EAI045 and Oral Elacridar Coadministration Enhances Its Brain Accumulation and Oral Exposure” (Pharmaceuticals, 2022)
